Data as given in the supplement of paper PMC7645387.

How the values were obtained:
Settings in all cases: treatment time: 6 days
HDFB [1] = test: cell viability relative to DMSO control; higher = less growth inhibition
Protocol: (§1)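 MCC cell lines (PeTa, MKL-1, MS-1, WaGa) and HDFB fibroblasts were treated for 6 days with serial dilutions (1e-11 to 1e-4 M) of single compounds in quadruplicate. Viability was read by CellTiter-Glo 2.0 and expressed as % of DMSO control.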

MKL-1 [2] = test: as above
Protocol: as §1

PeTa [3] = test: as above
Protocol: as §1

HDFB [4] = test: growth inhibition relative to DMSO control (fraction); higher = stronger growth inhibition
Protocol: (§2)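 Drug combination matrices: GSK-LSD1 (0, 1, 10, 100 nM) was combined with a second epigenetic drug (0 to 10 uM) on MCC lines PeTa and MKL-1 and on HDFB fibroblasts for 6 days, in quadruplicate. Viability was read by CellTiter-Glo 2.0. The response is the fraction of growth inhibition relative to DMSO, as input to synergyfinder Bliss analysis.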

MKL-1 [5] = test: as above
Protocol: as §2

PeTa [6] = test: as above
Protocol: as §2

Cc1sc2c(c1C)C(c1ccc(Cl)cc1)=N[C@@H](CC(=O)OC(C)(C)C)c1nnc(C)n1-2 [(+)-JQ1]
cell viability [%]
Settings | log10 concentration (M): -4 | log10 concentration (M): -5 | log10 concentration (M): -6 | log10 concentration (M): -7 | log10 concentration (M): -8 | log10 concentration (M): -9 | log10 concentration (M): -10 | log10 concentration (M): -11
HDFB [1] | 0.0326 | 31.7 | 52 | 78.7 | 94.8 | 106 | 110 | 99
MKL-1 [2] | 0.00849 | 0.0389 | 0.0944 | 20.7 | 66.8 | 89.2 | 94.1 | 93.9
PeTa [3] | 0.0148 | 3.47 | 7.04 | 21.7 | 94.3 | 96.7 | 87.4 | 100

Cc1cc2c(cc1N1C(=O)c3cccc4c(CCCO)ccc(c34)C1=O)n(C)c(=O)n2C [BAY299]
cell viability [%]
Settings | log10 concentration (M): -4 | log10 concentration (M): -5 | log10 concentration (M): -6 | log10 concentration (M): -7 | log10 concentration (M): -8 | log10 concentration (M): -9 | log10 concentration (M): -10 | log10 concentration (M): -11
HDFB [1] | 31.2 | 78.5 | 74.1 | 92.1 | 100 | 97.5 | 100 | 99.3
MKL-1 [2] | 0.0297 | 0.557 | 20.6 | 102 | 88.4 | 111 | 101 | 92.3
PeTa [3] | 0.141 | 2.01 | 37.3 | 88.5 | 92.1 | 94.4 | 103 | 95.8

Nc1ccccc1NC(=O)c1ccc(CNC(=O)OCc2cccnc2)cc1 [Entinostat]
cell viability [%]
Settings | log10 concentration (M): -4 | log10 concentration (M): -5 | log10 concentration (M): -6 | log10 concentration (M): -7 | log10 concentration (M): -8 | log10 concentration (M): -9 | log10 concentration (M): -10 | log10 concentration (M): -11
HDFB [1] | 0.192 | 11 | 33.8 | 94.1 | 102 | 102 | 104 | 104
MKL-1 [2] | 0.0104 | 0.0238 | 0.0511 | 75 | 102 | 102.6 | 101 | 102
PeTa [3] | 0.0531 | 0.0605 | 0.0805 | 50.9 | 94.9 | 98.1 | 102 | 108

c1ccc([C@@H]2C[C@H]2NC2CCNCC2)cc1 [GSK-LSD1] + CCOC(=O)NCCCC(=O)NCCc1ccccc1 [Santacruzamate A]
growth inhibition
Settings | partner concentration 0 nM | partner concentration 1 nM | partner concentration 10 nM | partner concentration 100 nM | partner concentration 1000 nM | partner concentration 10000 nM
HDFB [4], GSK-LSD1 concentration 0 nM | – | 0.0152 | 0.0273 | -0.00476 | 0.025 | -0.0257
HDFB [4], GSK-LSD1 concentration 1 nM | 0.0274 | 0.0683 | 0.0641 | 0.0608 | 0.0549 | 0.0385
HDFB [4], GSK-LSD1 concentration 10 nM | 0.103 | 0.132 | 0.111 | 0.109 | 0.0931 | 0.0944
HDFB [4], GSK-LSD1 concentration 100 nM | 0.209 | 0.215 | 0.245 | 0.258 | 0.258 | 0.248
MKL-1 [5], GSK-LSD1 concentration 0 nM | – | 0.00478 | -0.00416 | -0.0025 | -0.0148 | -0.0477
MKL-1 [5], GSK-LSD1 concentration 1 nM | 0.0491 | 0.0627 | 0.0768 | 0.068 | 0.072 | 0.014
MKL-1 [5], GSK-LSD1 concentration 10 nM | 0.266 | 0.253 | 0.298 | 0.281 | 0.242 | 0.184
MKL-1 [5], GSK-LSD1 concentration 100 nM | 0.748 | 0.763 | 0.741 | 0.763 | 0.696 | 0.755
PeTa [6], GSK-LSD1 concentration 0 nM | – | -0.00232 | 0.00932 | 0.0171 | -0.000556 | -0.0248
PeTa [6], GSK-LSD1 concentration 1 nM | 0.0188 | 0.0434 | 0.0394 | 0.0494 | 0.0221 | -0.00432
PeTa [6], GSK-LSD1 concentration 10 nM | 0.412 | 0.412 | 0.418 | 0.432 | 0.466 | 0.403
PeTa [6], GSK-LSD1 concentration 100 nM | 0.786 | 0.751 | 0.762 | 0.748 | 0.793 | 0.814

c1ccc([C@@H]2C[C@H]2NC2CCNCC2)cc1 [GSK-LSD1] + CN1CCN(c2ccc(-c3cccc(CN4CCOCC4)c3)cc2NC(=O)c2c[nH]c(=O)cc2C(F)(F)F)CC1 [OICR9429]
growth inhibition
Settings | partner concentration 0 nM | partner concentration 1 nM | partner concentration 10 nM | partner concentration 100 nM | partner concentration 1000 nM | partner concentration 10000 nM
HDFB [4], GSK-LSD1 concentration 0 nM | – | -0.0114 | 0.00661 | -0.0286 | 0.11 | 0.593
HDFB [4], GSK-LSD1 concentration 1 nM | 0.0144 | 0.0294 | 0.0019 | 0.0389 | 0.171 | 0.68
HDFB [4], GSK-LSD1 concentration 10 nM | 0.091 | 0.0858 | 0.0542 | 0.0911 | 0.22 | 0.651
HDFB [4], GSK-LSD1 concentration 100 nM | 0.149 | 0.113 | 0.145 | 0.139 | 0.282 | 0.676
MKL-1 [5], GSK-LSD1 concentration 0 nM | – | -0.0407 | -0.0602 | -0.0599 | -0.0444 | -0.00949
MKL-1 [5], GSK-LSD1 concentration 1 nM | 0.0584 | 0.0967 | 0.0719 | 0.0573 | 0.0606 | 0.0783
MKL-1 [5], GSK-LSD1 concentration 10 nM | 0.357 | 0.381 | 0.381 | 0.355 | 0.398 | 0.438
MKL-1 [5], GSK-LSD1 concentration 100 nM | 0.717 | 0.695 | 0.709 | 0.735 | 0.775 | 0.797
PeTa [6], GSK-LSD1 concentration 0 nM | – | -0.0155 | -0.0439 | -0.00944 | 0.0255 | 0.143
PeTa [6], GSK-LSD1 concentration 1 nM | -0.0127 | -0.0233 | -0.0546 | -0.0748 | 0.0274 | 0.0895
PeTa [6], GSK-LSD1 concentration 10 nM | 0.451 | 0.456 | 0.365 | 0.381 | 0.437 | 0.509
PeTa [6], GSK-LSD1 concentration 100 nM | 0.808 | 0.808 | 0.787 | 0.806 | 0.827 | 0.863
